In general, EC50 refers to the midpoint of the concentration-response curve. A low value points to a more potent agent.

Our source for the IC50 and EC50 values is patent publication US10669240B2, “5-substituted indazole-3-carboxamides and preparation and use thereof” (Samumed, LLC, priority 2014, dated 2020).

Like-named read-outs stand apart in the source and are kept apart here.

Assay [1] has as its system Wnt activity (Wnt-responsive SP5 promoter luciferase reporter in SW480 cells). Put plainly: Wnt activity reporter assay: SW480 cells with SP5 promoter-driven firefly luciferase. In kind it is cell-based. The conditions noted are these: 24 h after compound addition, read-out: Wnt inhibition. From the text:
The above synthesized compounds were screened using the assay procedure for Wnt activity described below.
Reporter cell lines were generated by stably transducing cells of cancer cell lines (e.g., colon cancer) with a lentiviral construct that include a Wnt-responsive promoter driving expression of the firefly luciferase gene.
Lentiviral constructs were made in which the SP5 promoter, a promoter having eight TCF/LEF binding sites derived from the SP5 promoter, was linked upstream of the firefly luciferase gene. The lentiviral constructs included a hygromycin resistance gene as a selectable marker. The SP5 promoter construct was used to transduce SW480 cells, a colon cancer cell line having a mutated APC gene that generates a truncated APC protein, leading to de-regulated accumulation of β-catenin.
Cultured SW480 cells bearing a reporter construct were distributed at approximately 10,000 cells per well into 384 well multiwell plates. Compounds were then added to the wells in half-log dilutions using a three micromolar top concentration. A series of control wells for each cell type received only buffer and compound solvent. Twenty-four hours after the addition of compound, reporter activity for luciferases was assayed, for example, by addition of the BrightGlo luminescence reagent (Promega) and the Victor3 plate reader (Perkin Elmer). Readings were normalized to DMSO only treated cells, and normalized activities were then used for the IC50 calculations.
For orientation: Reporter assays use an easily measured gene product as a stand-in for the process of interest.

For a further assay, the target named is DYRK1A (Homo sapiens (Human), UniProt Q13627). Put plainly: DYRK1A activity Tau assay: pSer396 Tau in SH-SY5Y cells by ELISA / western blot. In kind it is cell-based. To be noted: overnight (16-18 h) exposure. Background: In an ELISA, binding on a coated surface is turned into a signal by an enzyme label.

For `O=C(Nc1ccc(CN2CCCC2)cc1)c1n[nH]c2ccc(-c3cncc(F)c3)cc12` [Compound 1329, 5-(5-Fluoropyridin-3-yl)-N-(4-(pyrrolidin-1-ylmethyl)phenyl)-1H-indazole-3-carboxamide], in assay [1] (Homo sapiens), the IC50 was 1.7 µM. The same compound came in with an EC50 at DYRK1A of 0.001 µM.
Taken in the same sequence, the figures for `CN(C)CCNC(=O)c1n[nH]c2ccc(-c3cccnc3)cc12` [Compound 1259, N-(2-(Dimethylamino)ethyl)-5-(pyridin-3-yl)-1H-indazole-3-carboxamide] were 1.8 µM and 0.02 µM.
Taken in the same sequence, the figures for `O=C(NC1CC1)c1n[nH]c2ccc(-c3cncc(CN4CCCCC4)c3)cc12` [Compound 9, N-Cyclopropyl-5-(5-(piperidin-1-ylmethyl)pyridin-3-yl)-1H-indazole-3-carboxamide] were 2.91 µM and 0.002 µM.
Taken in the same sequence, the figures for `NC1CN(c2cncc(-c3ccc4[nH]nc(C(=O)Nc5cncc(-c6cccc(F)c6)c5)c4c3)n2)C1` [Compound 1344, 5-(6-(3-Aminoazetidin-1-yl)pyrazin-2-yl)-N-(5-(3-fluorophenyl)pyridin-3-yl)-1H-indazole-3-carboxamide] were 2.93 µM and 0.015 µM.
For the compound `O=C(NCc1cc(F)cc(F)c1)c1n[nH]c2ccc(-c3cncc(CN4CCCCC4)c3)cc12` [Compound 28, N-(3,5-Difluorobenzyl)-5-(5-(piperidin-1-ylmethyl)pyridin-3-yl)-1H-indazole-3-carboxamide], the IC50 in assay [1] (Homo sapiens) worked out at 3.1 µM. For the same compound, the response at DYRK1A was half-maximal at 0.002 µM (EC50).
Taken in the same sequence, the figures for `CC(C)CN1CC(NC(=O)c2n[nH]c3ccc(-c4cncc(Cl)c4)cc23)C1` [Compound 1273, 5-(5-Chloropyridin-3-yl)-N-(1-isobutylazetidin-3-yl)-1H-indazole-3-carboxamide] were 3.3 µM and 0.023 µM.
Taken in the same sequence, the figures for `O=C(NCCN1CCCCC1)c1n[nH]c2ccc(-c3cccnc3)cc12` [Compound 1265, N-(2-(Piperidin-1-yl)ethyl)-5-(pyridin-3-yl)-1H-indazole-3-carboxamide] were 1.2 µM and 0.017 µM.
In the case of `O=C(N[C@@H]1C[C@@H]1c1ccccc1)c1n[nH]c2ccc(-c3cccnc3)cc12` [Compound 38, N-((1R,2R)-2-Phenylcyclopropyl)-5-(pyridin-3-yl)-1H-indazole-3-carboxamide], the IC50 in assay [1] (Homo sapiens) was 1.57 µM. In addition, the EC50 at DYRK1A was found to be 0.004 µM.
Turning to `Cc1cc2[nH]nc(C(=O)Nc3ccc(CN4CCCC4)cc3)c2cc1-c1cccnc1` [Compound 1331, 6-Methyl-5-(pyridin-3-yl)-N-(4-(pyrrolidin-1-ylmethyl)phenyl)-1H-indazole-3-carboxamide], the IC50 in assay [1] (Homo sapiens) amounted to 1.4 µM. The response at DYRK1A was half-maximal at 0.017 µM (EC50).
Taken in the same sequence, the figures for `CN1CCC(NC(=O)c2n[nH]c3ccc(-c4cc(CN5CCCCC5)cc(F)c4F)cc23)CC1` [Compound 272, 5-(2,3-Difluoro-5-(piperidin-1-ylmethyl)phenyl)-N-(1-methylpiperidin-4-yl)-1H-indazole-3-carboxamide] were 1.7 µM and 0.015 µM.
Taken in the same sequence, the figures for `CN(C(=O)c1n[nH]c2ccc(-c3cncc(CN4CCCCC4)c3)cc12)c1cccnc1` [Compound 76, N-Methyl-5-(5-(piperidin-1-ylmethyl)pyridin-3-yl)-N-(pyridin-3-yl)-1H-indazole-3-carboxamide] were 6.5 µM and 0.99 µM.
Take `CN1CCC(NC(=O)c2n[nH]c3ccc(-c4ccccc4F)cc23)CC1` [Compound 16, 5-(2-Fluorophenyl)-N-(1-methylpiperidin-4-yl)-1H-indazole-3-carboxamide]: the IC50 in assay [1] (Homo sapiens) came to 14.6 µM. The compound further yielded an EC50 on DYRK1A of 0.335 µM.
Taken in the same sequence, the figures for `CC(C)CN1CC(NC(=O)c2n[nH]c3ccc(-c4cncc(C(F)F)c4)cc23)C1` [Compound 1274, 5-(5-(Difluoromethyl)pyridin-3-yl)-N-(1-isobutylazetidin-3-yl)-1H-indazole-3-carboxamide] were 1.2 µM and 0.02 µM.
For `CCN1CCC(NC(=O)c2n[nH]c3cc(F)c(-c4cncc5ccccc45)cc23)CC1` [Compound 1293, N-(1-Ethylpiperidin-4-yl)-6-fluoro-5-(isoquinolin-4-yl)-1H-indazole-3-carboxamide], the IC50 in assay [1] (Homo sapiens) turned out to be 2.13 µM. This compound also had an EC50 at DYRK1A of 0.21 µM.
Taken in the same sequence, the figures for `O=C(Nc1ccc(F)cc1)c1n[nH]c2ccc(-c3cncc(F)c3)cc12` [Compound 1341, N-(4-Fluorophenyl)-5-(5-fluoropyridin-3-yl)-1H-indazole-3-carboxamide] were 4.8 µM and 0.036 µM.
Taken in the same sequence, the figures for `O=C(Nc1ccccn1)c1n[nH]c2ccc(-c3cncc(CN4CCCCC4)c3)cc12` [Compound 56, 5-(5-(Piperidin-1-ylmethyl)pyridin-3-yl)-N-(pyridin-2-yl)-1H-indazole-3-carboxamide] were 1.1 µM and 0.003 µM.
Taken in the same sequence, the figures for `CN1CCC(NC(=O)c2n[nH]c3ccc(-c4cccnc4)cc23)CC1` [Compound 1, N-(1-Methylpiperidin-4-yl)-5-(pyridin-3-yl)-1H-indazole-3-carboxamide] were 1.3 µM and 0.065 µM.
For `O=C(NCc1ccccc1)c1n[nH]c2ccc(-c3cc(F)cc(CN4CCCCC4)c3)cc12` [Compound 29, N-Benzyl-5-(3-fluoro-5-(piperidin-1-ylmethyl)phenyl)-1H-indazole-3-carboxamide], the IC50 in assay [1] (Homo sapiens) amounted to 3.47 µM. In addition, on DYRK1A, the concentration for a half-maximal effect (EC50) is 0.117 µM.
Taken in the same sequence, the figures for `CN(C)[C@H]1CC[C@@H](NC(=O)c2n[nH]c3ccc(-c4cccnc4)cc23)CC1` [Compound 1287, N-((1s,4s)-4-(Dimethylamino)cyclohexyl)-5-(pyridin-3-yl)-1H-indazole-3-carboxamide] were greater than 10 µM and 0.037 µM.
Taken in the same sequence, the figures for `O=C(Nc1ncc(F)cc1F)c1n[nH]c2ccc(-c3cncc(CN4CCCCC4)c3)cc12` [Compound 58, N-(3,5-Difluoropyridin-2-yl)-5-(5-(piperidin-1-ylmethyl)pyridin-3-yl)-1H-indazole-3-carboxamide] were 4.01 µM and 0.003 µM.
Taken in the same sequence, the figures for `CN1CCC(NC(=O)c2n[nH]c3ccc(-c4cncc(C(F)(F)F)c4)cc23)CC1` [Compound 95, N-(1-Methylpiperidin-4-yl)-5-(5-(trifluoromethyl)pyridin-3-yl)-1H-indazole-3-carboxamide] were 1.07 µM and 0.261 µM.
As to `CN1CCC(NC(=O)c2n[nH]c3ccc(-c4cncc(CN5CCC5)c4)cc23)CC1` [Compound 8, 5-(5-(Azetidin-1-ylmethyl)pyridin-3-yl)-N-(1-methylpiperidin-4-yl)-1H-indazole-3-carboxamide], the IC50 in assay [1] (Homo sapiens) came to 6.29 µM. Moreover, on DYRK1A, the EC50 is 0.053 µM.
Consider `CN1CCC(NC(=O)c2n[nH]c3ccc(-c4cc(F)cc(F)c4)cc23)CC1` [Compound 21, 5-(3,5-Difluorophenyl)-N-(1-methylpiperidin-4-yl)-1H-indazole-3-carboxamide], for which, in assay [1] (Homo sapiens), the IC50 came to 1.31 µM. The compound further displayed an EC50 on DYRK1A of 0.744 µM.
For `CC(C)OCCCNC(=O)c1n[nH]c2ccc(-c3cccc(F)c3F)cc12` [Compound 1264, 5-(2,3-Difluorophenyl)-N-(3-isopropoxypropyl)-1H-indazole-3-carboxamide], in assay [1] (Homo sapiens), the IC50 came to 2.1 µM. Also, it took 0.263 µM to reach a half-maximal effect at DYRK1A (EC50).
Taken in the same sequence, the figures for `O=C(NC1CCN(CC2CC2)CC1)c1n[nH]c2ccc(-c3cncc(Cl)c3)cc12` [Compound 1313, 5-(5-Chloropyridin-3-yl)-N-(1-(cyclopropylmethyl)piperidin-4-yl)-1H-indazole-3-carboxamide] were 1.8 µM and 0.033 µM.
Taken in the same sequence, the figures for `CC(C)CN1CC(NC(=O)c2n[nH]c3ccc(-c4cncc(F)c4)cc23)C1` [Compound 1275, 5-(5-Fluoropyridin-3-yl)-N-(1-isobutylazetidin-3-yl)-1H-indazole-3-carboxamide] were 2.7 µM and 0.028 µM.
With “5-(5-(Piperidin-1-ylmethyl)pyridin-3-yl)-N-(2-(pyrrolidin-1-yl)pyridin-4-yl)-1H-indazole-3-carboxamide [Compound 100]”, in assay [1], the IC50 was determined as 2.6 µM. This compound had an EC50 at DYRK1A of 0.002 µM.
As to `O=C(NC1CCCCC1)c1n[nH]c2ccc(-c3cccnc3)cc12` [Compound 4, N-Cyclohexyl-5-(pyridin-3-yl)-1H-indazole-3-carboxamide], the IC50 in assay [1] (Homo sapiens) was determined as 4.46 µM. In addition, the EC50 at DYRK1A turned out to be 0.035 µM.
Taken in the same sequence, the figures for `O=C(NC1CCN(CCF)CC1)c1n[nH]c2ccc(-c3cncc4ccccc34)cc12` [Compound 1297, N-(1-(2-Fluoroethyl)piperidin-4-yl)-5-(isoquinolin-4-yl)-1H-indazole-3-carboxamide] were 2.2 µM and 0.03 µM.
Turning to `CC(C)OCCCNC(=O)c1n[nH]c2ccc(-c3cccnc3)cc12` [Compound 1261, N-(3-Isopropoxypropyl)-5-(pyridin-3-yl)-1H-indazole-3-carboxamide], in assay [1] (Homo sapiens), the IC50 is 1 µM. A half-maximal response at DYRK1A (EC50) required 0.005 µM.
For `O=C(NCc1cccc(F)c1)c1n[nH]c2ccc(-c3cncc(CN4CCCCC4)c3)cc12` [Compound 27, N-(3-Fluorobenzyl)-5-(5-(piperidin-1-ylmethyl)pyridin-3-yl)-1H-indazole-3-carboxamide], in assay [1] (Homo sapiens), the IC50 amounted to 1.76 µM. At DYRK1A, the EC50 was 0.002 µM.
